Data as given in patent EP0126817A1, “Suppressing of graft rejection in organ transplantation” (SHANKSVILLE CORPORATION N.V., priority 1983, dated 1984).

Key:
Format in all cases: cell-based
cytotoxic T lymphoblasts = assay: Chromium release test: inhibition of tumor cell killing by cytotoxic T cells activated by interleukin 2; conditions: HeLa tumor cells labelled with radioactive chromium, 2 micrograms per ml of culture medium
Method: The following test is conducted to determine the inhibition of tumor cell killing capability of cytotoxic T cells activated by interleukin 2. Tumor cells from HeLa strain are labelled with radioactive chromium. The cells are washed and divided into two portions comprising the same cell number. Both portions are coincubated with cytotoxic T lymphoblasts for 18 hours. The culture medium contains IL-2. To one of the portions, at the beginning of the cocultivation, desialo GM1 is added'in concentration of 2 micrograms per ml of culture medium. The culture medium is decanted and the cells are pelleted in a centrifuge.

[1] = test system: Peripheral blood lymphocytes; assay: T lymphocyte blast transformation in IL-2 containing culture medium pretreated with the ganglioside and dialysed; conditions: IL-2 medium RPMI 1640 treated with 5 micrograms per ml at 37°C for 30 minutes, dialysed 24 hours at 4°C; cells incubated 7 days
Method: This Example illustrates that asialo GM1 reacts with a soluble mediator for T lymphocyte blastogenesis inhibiting cytotoxic T cell formation. Peripheral blood lymphocytes are isolated by a density gradient centrifugation on ficoll hypaque and incubated 24 hours in the absence of serum proteins. Interleukin 2 containing tissue culture medium RPMI 1640 is treated with asialo GM1 in a concentration of 5 micrograms per ml of culture medium. The incubation with asialo GM1 is performed at 37°C for 30 minutes. Thereafter,the treated culture medium is dialysed against RPMI 1640 without supplements for 24 hours at a temperature of 4°C. The cells are incubated in the dialysed (and thus containing no free asialo GM1) culture medium for 7 days. For dialysis, the critical micellar concentration (CMC) of the ganglioside has to be regarded. If it is exceeded, dialysis will be impossible. CMC values for each ganglioside have been established, and are readily available.

T cell blasts = assay: In vitro T cell culture systems containing IL-2 (general finding)
From the text: This observation therefore leads to an in vivo procedure for modification of the cell mediated immunological graft rejection mechanism by blocking the formation of cytotoxic T cells at the level of the T effector cells and without destroying macrophage cells. Accordingly, the procedure of the present invention is highly advantageous as compared to presently available techniques for transplant protection, particularly by the use of immunosuppressive drugs. […] Therefore, such drugs will subject the patient to increased risk of infectious diseases. […] At the time of the graft transplantation therefore, the consequence of IL-2 and T cell blasts will allow the latter to proliferate until the IL-2 is consumed. This process generally requires several days. In contrast, the immunosuppressive blocking agents of this invention require less than 24 hours to effectively terminate cytotoxic T cell proliferation and to kill off any existing cytotoxic T cells.

Gal(beta 1-3)GalNac(beta 1-4)Glc(beta 1-1)Cer [asialo GM1]
% of Cr released, Target and T cell (cytotoxic T lymphoblasts; coincubated with cytotoxic T lymphoblasts for 18 hours, IL-2 medium): 5.3% | % of Cr released, Target and control (cytotoxic T lymphoblasts; control in place of T cells, 18 hours): 3.8% | blast transformation of T cells [1]: no blast transformation of T cells is observed | proliferation of T cell blasts in growing T cell lines (T cell blasts): prevents proliferation of T cell blasts
